In brackets after ≈: the same amount, converted by molar mass.
Legend:
Type in all cases: functional
Staphylococcus aureus [1] = experiment: Antimicrobial activity against methicillin-sensitive Staphylococcus aureus ATCC 29213 by microbroth dilution method
Klebsiella pneumoniae = experiment: Antimicrobial activity against Klebsiella pneumoniae ATCC 33495 at >200 ug/ml by microbroth dilution method
Escherichia coli [2] = experiment: Antimicrobial activity against tolC-deficient Escherichia coli by microbroth dilution method
[3] = tested on: Mycobacterium tuberculosis; experiment: Antimicrobial activity against Mycobacterium tuberculosis H37Rv by microbroth dilution method
Escherichia coli [4] = experiment: Antimicrobial activity against Escherichia coli K-12 by microbroth dilution method
Staphylococcus aureus [5] = experiment: Antimicrobial activity against methicillin-resistant Staphylococcus aureus NRS 70 by microbroth dilution method
Pseudomonas aeruginosa = experiment: Antimicrobial activity against Pseudomonas aeruginosa PAO1 at >200 ug/ml by microbroth dilution method
Enterococcus faecalis = experiment: Antimicrobial activity against Enterococcus faecalis ATCC 33186 by microbroth dilution method

CCCCCCCC1CC(=O)c2ccc(O)cc2O1 (stereo not drawn)
MIC (Staphylococcus aureus [1]): > 200 µg/mL
MIC (Klebsiella pneumoniae): > 200 µg/mL
MIC (Escherichia coli [2]): 1.56 µg/mL (≈ 5.95 µM)
MIC [3]: 50 µg/mL (≈ 191 µM)
MIC (Escherichia coli [4]): > 200 µg/mL
MIC (Staphylococcus aureus [5]): > 200 µg/mL
MIC (Pseudomonas aeruginosa): > 200 µg/mL
MIC (Enterococcus faecalis): > 200 µg/mL

C=CCOc1ccccc1/C=C/C(=O)c1ccc(O)cc1
MIC (Staphylococcus aureus [1]): 12.5 µg/mL (≈ 44.6 µM)
MIC (Klebsiella pneumoniae): > 200 µg/mL
MIC (Escherichia coli [2]): 6.25 µg/mL (≈ 22.3 µM)
MIC [3]: 200 µg/mL (≈ 713 µM)
MIC (Escherichia coli [4]): > 200 µg/mL
MIC (Staphylococcus aureus [5]): 6.25 µg/mL (≈ 22.3 µM)
MIC (Pseudomonas aeruginosa): > 200 µg/mL
MIC (Enterococcus faecalis): 100 µg/mL (≈ 357 µM)

COCOc1cc(OCOC)c2c(c1)OC(CC(C)CCC=C(C)C)CC2=O (stereo not drawn)
MIC (Staphylococcus aureus [1]): > 200 µg/mL
MIC (Klebsiella pneumoniae): > 200 µg/mL
MIC (Escherichia coli [2]): > 200 µg/mL
MIC [3]: > 200 µg/mL
MIC (Escherichia coli [4]): > 200 µg/mL
MIC (Staphylococcus aureus [5]): > 200 µg/mL
MIC (Pseudomonas aeruginosa): > 200 µg/mL
MIC (Enterococcus faecalis): > 200 µg/mL

CCCCCCC1C/C(=N\O)c2c(O)cc(O)cc2O1 (stereo not drawn)
MIC (Staphylococcus aureus [1]): 6.25 µg/mL (≈ 22.4 µM)
MIC (Klebsiella pneumoniae): > 200 µg/mL
MIC (Escherichia coli [2]): 3.13 µg/mL (≈ 11.2 µM)
MIC [3]: 100 µg/mL (≈ 358 µM)
MIC (Escherichia coli [4]): > 200 µg/mL
MIC (Staphylococcus aureus [5]): 6.25 µg/mL (≈ 22.4 µM)
MIC (Pseudomonas aeruginosa): > 200 µg/mL
MIC (Enterococcus faecalis): 12.5 µg/mL (≈ 44.7 µM)

CCCCCCOc1cc(O)cc(O)c1C(=O)C(C)CC (racemic)
MIC (Staphylococcus aureus [1]): 1.56 µg/mL (≈ 5.3 µM)
MIC (Klebsiella pneumoniae): > 200 µg/mL
MIC (Escherichia coli [2]): 3.13 µg/mL (≈ 10.6 µM)
MIC [3]: 100 µg/mL (≈ 340 µM)
MIC (Escherichia coli [4]): > 200 µg/mL
MIC (Staphylococcus aureus [5]): 1.56 µg/mL (≈ 5.3 µM)
MIC (Pseudomonas aeruginosa): > 200 µg/mL
MIC (Enterococcus faecalis): 1.56 µg/mL (≈ 5.3 µM)

CCCCCCCCOc1ccccc1/C=C/C(=O)c1ccc(O)cc1O
MIC (Staphylococcus aureus [1]): 25 µg/mL (≈ 67.8 µM)
MIC (Klebsiella pneumoniae): > 200 µg/mL
MIC (Escherichia coli [2]): > 200 µg/mL
MIC [3]: > 200 µg/mL
MIC (Escherichia coli [4]): > 200 µg/mL
MIC (Staphylococcus aureus [5]): 6.25 µg/mL (≈ 17 µM)
MIC (Pseudomonas aeruginosa): > 200 µg/mL
MIC (Enterococcus faecalis): 1.56 µg/mL (≈ 4.23 µM)

NC[C@H]1O[C@H](O[C@H]2[C@H](O)[C@@H](O[C@H]3O[C@H](CO)[C@@H](O)[C@H](N)[C@H]3O)[C@H](N)C[C@@H]2N)[C@H](O)[C@@H](O)[C@@H]1O [KANAMYCIN]
MIC (Staphylococcus aureus [1]): 1.56 µg/mL (≈ 3.22 µM)
MIC (Klebsiella pneumoniae): > 200 µg/mL
MIC (Escherichia coli [2]): < 0.2 µg/mL
MIC (Escherichia coli [4]): 3.13 µg/mL (≈ 6.46 µM)
MIC (Staphylococcus aureus [5]): 50 µg/mL (≈ 103 µM)
MIC (Pseudomonas aeruginosa): > 200 µg/mL
MIC (Enterococcus faecalis): 25 µg/mL (≈ 51.6 µM)

C=CCOc1ccccc1/C=C/C(=O)c1c(O)cc(O)cc1O
MIC (Staphylococcus aureus [1]): > 200 µg/mL
MIC (Klebsiella pneumoniae): > 200 µg/mL
MIC (Escherichia coli [2]): 12.5 µg/mL (≈ 40 µM)
MIC [3]: > 200 µg/mL
MIC (Escherichia coli [4]): > 200 µg/mL
MIC (Staphylococcus aureus [5]): 25 µg/mL (≈ 80 µM)
MIC (Pseudomonas aeruginosa): > 200 µg/mL
MIC (Enterococcus faecalis): 50 µg/mL (≈ 160 µM)

CCCCCCCCCC1C/C(=N\OCc2ccccc2)c2c(O)cc(O)cc2O1 (stereo not drawn)
MIC (Staphylococcus aureus [1]): > 200 µg/mL
MIC (Klebsiella pneumoniae): > 200 µg/mL
MIC (Escherichia coli [2]): > 200 µg/mL
MIC [3]: > 200 µg/mL
MIC (Escherichia coli [4]): > 200 µg/mL
MIC (Staphylococcus aureus [5]): > 200 µg/mL
MIC (Pseudomonas aeruginosa): > 200 µg/mL
MIC (Enterococcus faecalis): 50 µg/mL (≈ 121 µM)

CC1(C)C2CC=C(C3CC(=O)c4ccc(O)cc4O3)C1C2 (stereo not drawn)
MIC (Staphylococcus aureus [1]): 200 µg/mL (≈ 703 µM)
MIC (Klebsiella pneumoniae): > 200 µg/mL
MIC (Escherichia coli [2]): 6.25 µg/mL (≈ 22 µM)
MIC [3]: > 200 µg/mL
MIC (Escherichia coli [4]): > 200 µg/mL
MIC (Staphylococcus aureus [5]): 200 µg/mL (≈ 703 µM)
MIC (Pseudomonas aeruginosa): > 200 µg/mL
MIC (Enterococcus faecalis): > 200 µg/mL

CCCCCCC1CC(=O)c2c(O)cc(O)cc2O1 (stereo not drawn)
MIC (Klebsiella pneumoniae): > 200 µg/mL
MIC (Escherichia coli [2]): 3.13 µg/mL (≈ 11.8 µM)
MIC [3]: 50 µg/mL (≈ 189 µM)
MIC (Escherichia coli [4]): > 200 µg/mL
MIC (Staphylococcus aureus [5]): 6.25 µg/mL (≈ 23.6 µM)
MIC (Pseudomonas aeruginosa): > 200 µg/mL
MIC (Enterococcus faecalis): 100 µg/mL (≈ 378 µM)

C=CCOc1cc(O)cc(O)c1C(=O)C(C)CC (racemic)
MIC (Klebsiella pneumoniae): > 200 µg/mL
MIC (Escherichia coli [2]): 3.13 µg/mL (≈ 12.5 µM)
MIC [3]: 100 µg/mL (≈ 400 µM)
MIC (Escherichia coli [4]): > 200 µg/mL
MIC (Staphylococcus aureus [5]): 6.25 µg/mL (≈ 25 µM)
MIC (Pseudomonas aeruginosa): > 200 µg/mL

CCC(C)C(=O)c1c(O)cc(O)cc1OC/C=C(\C)CCC=C(C)C (racemic)
MIC (Klebsiella pneumoniae): > 200 µg/mL
MIC (Escherichia coli [2]): > 200 µg/mL
MIC [3]: 200 µg/mL (≈ 577 µM)
MIC (Staphylococcus aureus [5]): 3.13 µg/mL (≈ 9.03 µM)
MIC (Pseudomonas aeruginosa): > 200 µg/mL

C=CCOc1cc(O)cc(O)c1C(=O)[C@@H](C)CC
MIC (Staphylococcus aureus [1]): 12.5 µg/mL (≈ 49.9 µM)
MIC (Klebsiella pneumoniae): > 200 µg/mL
MIC (Escherichia coli [2]): 3.13 µg/mL (≈ 12.5 µM)
MIC (Staphylococcus aureus [5]): 12.5 µg/mL (≈ 49.9 µM)
MIC (Pseudomonas aeruginosa): > 200 µg/mL
MIC (Enterococcus faecalis): 12.5 µg/mL (≈ 49.9 µM)

CC1(C)S[C@@H]2[C@H](NC(=O)[C@H](N)c3ccccc3)C(=O)N2[C@H]1C(=O)O [AMPICILLIN]
MIC (Staphylococcus aureus [1]): 1.56 µg/mL (≈ 4.46 µM)
MIC (Klebsiella pneumoniae): > 200 µg/mL
MIC (Escherichia coli [2]): 1.56 µg/mL (≈ 4.46 µM)
MIC (Escherichia coli [4]): 3.13 µg/mL (≈ 8.96 µM)
MIC (Staphylococcus aureus [5]): 12.5 µg/mL (≈ 35.8 µM)
MIC (Pseudomonas aeruginosa): > 200 µg/mL
MIC (Enterococcus faecalis): 0.78 µg/mL (≈ 2.23 µM)

O=C(N[C@H](CO)[C@H](O)c1ccc([N+](=O)[O-])cc1)C(Cl)Cl [CHLORAMPHENICOL]
MIC (Staphylococcus aureus [1]): 3.13 µg/mL (≈ 9.69 µM)
MIC (Klebsiella pneumoniae): > 200 µg/mL
MIC (Escherichia coli [2]): 0.39 µg/mL (≈ 1.21 µM)
MIC (Escherichia coli [4]): 3.13 µg/mL (≈ 9.69 µM)
MIC (Staphylococcus aureus [5]): 1.56 µg/mL (≈ 4.83 µM)
MIC (Pseudomonas aeruginosa): > 200 µg/mL
MIC (Enterococcus faecalis): 0.78 µg/mL (≈ 2.41 µM)

NNC(=O)c1ccncc1 [ISONIAZID]
MIC [3]: 0.03 µg/mL (≈ 0.219 µM)

Source: ChEMBL document CHEMBL3351381, “Synthesis, structure-activity relationship studies, and antibacterial evaluation of 4-chromanones and chalcones, as well as olympicin A and derivatives” (J Med Chem, 2014)
